Measured values from patent US12390437B2, “Itaconic acid derivatives and uses thereof intreating an inflammatory disease or a disease associated with an undesirable immune response” (Sitryx Therapeutics Limited, priority 2019, dated 2025).
Read-outs that look alike come from different tables or passages of the source.

Tests used:
NRF2 = NRF2 +/-GSH activation assay (DiscoverX PathHunter NRF2 translocation kit, U2OS cells); type: cell-based; conditions: Homo sapiens
Method in brief: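 PathHunter U2OS cells, plated 24 hrs, measured NRF2 nuclear translocation by enzyme-fragment complementation luminescence after 6 hours compound exposure at 37 °C. For +GSH, compound was pre-incubated 30 minutes with GSH (6 mM working stock). EC50 from % activation normalised to dimethyl fumarate high control.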

[1] = Mouse pharmacokinetic study, oral administration; type: in vivo; conditions: for concentration at 0.083 h / concentration at 0.25 h / concentration at 0.5 h / concentration at 1 h / concentration at 2 h / concentration at 4 h / concentration at 6 h / concentration at 8 h / concentration at 24 h: male, C57BL/6, mouse, plasma, po, 100 mg/kg, male C57BL/6 mice, oral gavage 100 mg/kg; for concentration at 0.083 h: read-out: Parent compound concentrations following oral administration, Time 0.083 h; for concentration at 0.25 h: read-out: Parent compound concentrations following oral administration, Time 0.25 h; for concentration at 0.5 h: read-out: Parent compound concentrations following oral administration, Time 0.5 h; for concentration at 1 h: read-out: Parent compound concentrations following oral administration, Time 1 h; for concentration at 2 h: read-out: Parent compound concentrations following oral administration, Time 2 h; for concentration at 4 h: read-out: Parent compound concentrations following oral administration, Time 4 h; for concentration at 6 h: read-out: Parent compound concentrations following oral administration, Time 6 h; for concentration at 8 h: read-out: Parent compound concentrations following oral administration, Time 8 h; for concentration at 24 h: read-out: Parent compound concentrations following oral administration, Time 24 h
Method in brief: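 Oral arm: 100 mg/kg gavage in 5% DMSO with 0.5% HPMC/0.1% Tween 80, blood from 5 min to 24 h. Intravenous arm: 10 mg/kg tail-vein injection in 10% DMSO with HP-β-CD, blood from 3 min to 8 h. Male C57BL/6 mice; LC-MS/MS on plasma.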

[2] = system: IL-1β cytokine output from THP-1s; experiment: THP-1 AlphaLISA IL-1β cytokine assay; type: cell-based, human; conditions: Homo sapiens, read-out: IL-1β (IC50)
Method in brief: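 Cells are differentiated with PMA over 72 h, switched to 1% FBS medium and treated with compound for 30 min before LPS stimulation for 24 h. Nigericin is added for a final hour, and secreted cytokine is measured by AlphaLISA, with IC50 fitted from percent inhibition.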

[3] = U2OS, normalised to dimethyl fumarate 'High' control, GSH condition not stated in Table 5, read-out: NRF2 activation Emax
[4] = U2OS PathHunter cells, 6 hours, GSH condition not stated in Table 5, read-out: NRF2 activation EC50
[5] = THP-1, PMA-differentiated THP-1 cells, LPS 24 hr then Nigericin 1 hour

| Compound | EC50 (NRF2; [4]) | concentration at 0.083 h [1] | concentration at 0.25 h [1] | concentration at 0.5 h [1] | concentration at 1 h [1] | concentration at 2 h [1] | concentration at 4 h [1] | concentration at 6 h [1] | concentration at 8 h [1] | concentration at 24 h [1] | IC50 [2, 5] | EC50 (NRF2; U2OS, Table 10, assay of Biological Example 5 (NRF2), read-out: EC50) | IC50 ([2]; THP-1, Table 10, assay of Biological Example 1 (THP-1)) | Emax (NRF2; [3]) | Emax (NRF2; U2OS, Table 10, assay of Biological Example 5 (NRF2), read-out: Emax) | Quantifiability in plasma following oral administration ([1]; mouse, 100 mg/kg oral) |
| --- | --- | --- | --- | --- | --- | --- | --- | --- | --- | --- | --- | --- | --- | --- | --- | --- |
| C=C(CC(=O)OC1CCCCC1)C(=O)OCc1nnn[nH]1 [Example 125, 1-((2H-tetrazol-5-yl)methyl) 4-cyclohexyl 2-methylenesuccinate] | 38.3 µM | 9360 ng/mL | 4360 ng/mL | 2650 ng/mL | 1430 ng/mL | 785 ng/mL | 427 ng/mL | 163 ng/mL | 15 ng/mL | < 0.8 ng/mL | 17 µM | – | – | 116% | – | – |
| C=C(CC(=O)OC1CCCCCCC1)C(=O)OC(C)c1nnn[nH]1 (stereo not shown) [Example 133, 1-(1-(1H-tetrazol-5-yl)ethyl) 4-cyclooctyl 2-methylenesuccinate] | 33.3 µM | 9360 ng/mL | 9940 ng/mL | 4270 ng/mL | 1100 ng/mL | 527 ng/mL | 799 ng/mL | 146 ng/mL | 101 ng/mL | < 8 ng/mL | 14.8 µM | – | – | 227% | – | – |
| C=C(CC(=O)OC1CCCCCCC1)C(=O)OCc1nnn[nH]1 [Example 134, 1-((1H-tetrazol-5-yl)methyl) 4-cyclooctyl 2-methylenesuccinate] | 20 µM | 17500 ng/mL | 3500 ng/mL | 7970 ng/mL | 1980 ng/mL | 856 ng/mL | 636 ng/mL | 94 ng/mL | 62 ng/mL | 7 ng/mL | 9.8 µM | – | – | 183% | – | – |
| C=C(CC(=O)O[C@H](CC)CCCCC)C(=O)OCC(=O)O [Example 178, (R)-2-(2-methylene-4-(octan-3-yloxy)-4-oxobutanoyloxy)acetic acid] | 14.3 µM | 67100 ng/mL | 27100 ng/mL | 27900 ng/mL | 11000 ng/mL | 3660 ng/mL | 1460 ng/mL | 2240 ng/mL | 639 ng/mL | < 4 ng/mL | 24.6 µM | – | – | 188% | – | – |
| C=C(CC(=O)OC(C)(C)CCCCCC)C(=O)OCC(=O)O [Example 192, 2-((2-methylene-4-((2-methyloctan-2-yl)oxy)-4-oxobutanoyl)oxy)acetic acid] | 11.8 µM | 47000 ng/mL | 60700 ng/mL | 37900 ng/mL | 25200 ng/mL | 8740 ng/mL | 5440 ng/mL | 79 ng/mL | 41 ng/mL | 6.6 ng/mL | 10.6 µM | – | – | 194% | – | – |
| C=C(CC(=O)OC)C(=O)OC [dimethyl itaconate, reference compound] | 21.4 µM | < 24 ng/mL | < 24 ng/mL | < 24 ng/mL | < 24 ng/mL | < 24 ng/mL | < 24 ng/mL | < 24 ng/mL | < 24 ng/mL | < 24 ng/mL | > 100 µM | 21.4 µM | > 100 µM | 137% | 137% | below the limit of quantification at all timepoints |

The next compounds have a lower EC50 (NRF2; [4]) than those just listed; values first:

| EC50 (NRF2; [4]) | concentration at 0.083 h [1] | concentration at 0.25 h [1] | concentration at 0.5 h [1] | concentration at 1 h [1] | concentration at 2 h [1] | concentration at 4 h [1] | concentration at 6 h [1] | concentration at 8 h [1] | concentration at 24 h [1] | IC50 [2, 5] | EC50 (NRF2; U2OS, Table 10, assay of Biological Example 5 (NRF2), read-out: EC50) | IC50 ([2]; THP-1, Table 10, assay of Biological Example 1 (THP-1)) | Compound | Emax (NRF2; [3]) | Emax (NRF2; U2OS, Table 10, assay of Biological Example 5 (NRF2), read-out: Emax) | Quantifiability in plasma following oral administration ([1]; mouse, 100 mg/kg oral) |
| --- | --- | --- | --- | --- | --- | --- | --- | --- | --- | --- | --- | --- | --- | --- | --- | --- |
| 5.8 µM | 305 ng/mL | 1030 ng/mL | 109 ng/mL | 255 ng/mL | 61 ng/mL | 13 ng/mL | 16 ng/mL | 11 ng/mL | 3.5 ng/mL | 5.5 µM | – | – | C=C(CC(=O)O[C@@H](C)CCCCCC)C(=O)OCCc1nnn[nH]1 [Example 129, (S)-1-(2-(1H-tetrazol-5-yl)ethyl) 4-octan-2-yl 2-methylenesuccinate] | 178% | – | – |
| 5 µM | 7020 ng/mL | 4340 ng/mL | 1900 ng/mL | 1260 ng/mL | 727 ng/mL | 186 ng/mL | 108 ng/mL | 16 ng/mL | < 4 ng/mL | 6.8 µM | – | – | C=C(CC(=O)O[C@H](C)CCCCCC)C(=O)OCc1nn[nH]n1 [Example 161, (R)-1-((2H-tetrazol-5-yl)methyl) 4-(octan-2-yl) 2-methylenesuccinate] | 146% | – | – |
| 4.9 µM | 3790 ng/mL | 2970 ng/mL | 1860 ng/mL | 968 ng/mL | 585 ng/mL | 381 ng/mL | 135 ng/mL | 181 ng/mL | < 4 ng/mL | 2 µM | – | – | C=C(CC(=O)O[C@@H](C)CCCCCC)C(=O)OCc1nn[nH]n1 [Example 164, (S)-1-(2H-tetrazol-5-yl)methyl 4-octan-2-yl 2-methylenesuccinate] | 168% | – | – |
| 5.5 µM | 65900 ng/mL | 46800 ng/mL | 27900 ng/mL | 13500 ng/mL | 5390 ng/mL | 1370 ng/mL | 1280 ng/mL | 417 ng/mL | 5.9 ng/mL | 6.1 µM | – | – | C=C(CC(=O)O[C@@H](CCCCCC)C(F)(F)F)C(=O)OCC(=O)O [Example 182, (S)-2-((2-methylene-4-oxo-4-((1,1,1-trifluorooctan-2-yl)oxy)butanoyl)oxy)acetic acid] | 188% | – | – |
